# Test system: NAMEC cells transformed with Ras
# Details: mouse, in vivo
substance,measurement,value
cholera toxin,loss of tumor-initiating ability compared to untreated NAMEC cells,100 fold
